Data from US20240269139A1, “COMPOUNDS FOR TARGETED PROTEIN DEGRADATION OF KINASES” (DANA-FARBER CANCER INSTITUTE, INC., priority 2020, published 2024).
Where two headings read alike, the source gives them in different places.

How the values were obtained:
Type in all cases: cell-based
[1] = biological target: protein kinases (human kinome) (Homo sapiens, UniProt O43683); conditions: for logFC: BUB1 (O43683); for logFC BUB1 (O43683): direction down
[2] = biological target: protein kinases (human kinome) (Homo sapiens, UniProt P07947); conditions: YES1 (P07947)
protein kinases (human kinome) (Homo sapiens, UniProt P07947), sequence (P07947 whole entry): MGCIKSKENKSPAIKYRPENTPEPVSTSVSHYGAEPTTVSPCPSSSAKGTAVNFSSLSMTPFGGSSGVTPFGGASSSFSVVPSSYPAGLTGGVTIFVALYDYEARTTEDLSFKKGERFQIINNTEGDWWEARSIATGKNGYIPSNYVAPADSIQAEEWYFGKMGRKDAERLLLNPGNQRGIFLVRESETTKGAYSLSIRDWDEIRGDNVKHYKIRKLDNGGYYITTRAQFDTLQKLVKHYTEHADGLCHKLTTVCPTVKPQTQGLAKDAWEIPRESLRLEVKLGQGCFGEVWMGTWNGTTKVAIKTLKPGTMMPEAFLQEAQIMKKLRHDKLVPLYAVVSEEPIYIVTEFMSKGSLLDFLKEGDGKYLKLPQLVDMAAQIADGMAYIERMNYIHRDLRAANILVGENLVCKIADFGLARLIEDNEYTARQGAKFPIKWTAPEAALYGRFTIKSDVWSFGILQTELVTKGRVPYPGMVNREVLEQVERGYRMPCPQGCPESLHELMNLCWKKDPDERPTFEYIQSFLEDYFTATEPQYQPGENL

[3] = biological target: protein kinases (human kinome) (Homo sapiens, UniProt P53667); conditions: LIMK1 (P53667-1)
protein kinases (human kinome) (Homo sapiens, UniProt P53667), sequence (P53667 whole entry): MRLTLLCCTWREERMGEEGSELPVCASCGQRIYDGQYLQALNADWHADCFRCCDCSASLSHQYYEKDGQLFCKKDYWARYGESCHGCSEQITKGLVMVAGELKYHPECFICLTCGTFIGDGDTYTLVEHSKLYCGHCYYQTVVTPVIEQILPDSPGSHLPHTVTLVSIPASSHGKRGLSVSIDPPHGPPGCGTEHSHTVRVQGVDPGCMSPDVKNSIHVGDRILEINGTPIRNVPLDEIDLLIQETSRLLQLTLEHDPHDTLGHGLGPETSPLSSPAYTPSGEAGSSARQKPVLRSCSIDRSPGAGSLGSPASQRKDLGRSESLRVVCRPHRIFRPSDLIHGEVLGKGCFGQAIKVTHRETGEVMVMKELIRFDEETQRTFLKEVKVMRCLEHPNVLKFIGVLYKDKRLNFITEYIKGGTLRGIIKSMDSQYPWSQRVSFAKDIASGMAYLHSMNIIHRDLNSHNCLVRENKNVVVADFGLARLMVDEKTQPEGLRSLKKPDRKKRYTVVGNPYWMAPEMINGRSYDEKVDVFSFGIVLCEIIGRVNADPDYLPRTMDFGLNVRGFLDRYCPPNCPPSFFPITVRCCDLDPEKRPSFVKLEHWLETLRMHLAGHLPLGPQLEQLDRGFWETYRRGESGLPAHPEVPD

[4] = biological target: protein kinases (human kinome) (Homo sapiens, UniProt Q13233); conditions: experiment wp168
[5] = biological target: protein kinases (human kinome) (Homo sapiens, UniProt Q16584)
protein kinases (human kinome) (Homo sapiens, UniProt Q16584), sequence (Q16584 whole entry): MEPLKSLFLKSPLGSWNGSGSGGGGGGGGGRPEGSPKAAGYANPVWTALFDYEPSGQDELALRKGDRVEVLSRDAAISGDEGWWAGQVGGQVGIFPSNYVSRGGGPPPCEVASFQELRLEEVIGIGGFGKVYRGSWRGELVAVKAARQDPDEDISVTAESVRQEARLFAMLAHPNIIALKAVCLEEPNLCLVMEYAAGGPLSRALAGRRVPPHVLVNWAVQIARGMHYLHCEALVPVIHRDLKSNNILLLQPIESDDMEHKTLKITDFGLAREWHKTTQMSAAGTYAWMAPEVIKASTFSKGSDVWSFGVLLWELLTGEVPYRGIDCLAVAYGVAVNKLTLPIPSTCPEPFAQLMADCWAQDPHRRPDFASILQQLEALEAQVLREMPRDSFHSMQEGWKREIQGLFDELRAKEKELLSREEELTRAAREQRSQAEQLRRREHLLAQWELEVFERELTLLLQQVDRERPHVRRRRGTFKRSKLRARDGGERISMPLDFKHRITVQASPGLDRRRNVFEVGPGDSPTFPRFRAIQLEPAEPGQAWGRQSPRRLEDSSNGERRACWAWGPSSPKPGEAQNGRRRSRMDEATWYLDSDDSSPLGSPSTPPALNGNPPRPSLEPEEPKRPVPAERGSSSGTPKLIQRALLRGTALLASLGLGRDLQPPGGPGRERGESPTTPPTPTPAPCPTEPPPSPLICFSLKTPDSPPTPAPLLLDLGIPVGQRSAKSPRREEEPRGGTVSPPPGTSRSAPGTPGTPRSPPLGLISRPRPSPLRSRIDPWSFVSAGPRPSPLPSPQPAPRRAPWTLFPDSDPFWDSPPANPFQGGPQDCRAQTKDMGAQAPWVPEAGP

[6] = biological target: T1, protein kinases (human kinome) (Homo sapiens, UniProt Q8TAS1); conditions: experiment wp168
T1 sequence (Q8TAS1 1-419): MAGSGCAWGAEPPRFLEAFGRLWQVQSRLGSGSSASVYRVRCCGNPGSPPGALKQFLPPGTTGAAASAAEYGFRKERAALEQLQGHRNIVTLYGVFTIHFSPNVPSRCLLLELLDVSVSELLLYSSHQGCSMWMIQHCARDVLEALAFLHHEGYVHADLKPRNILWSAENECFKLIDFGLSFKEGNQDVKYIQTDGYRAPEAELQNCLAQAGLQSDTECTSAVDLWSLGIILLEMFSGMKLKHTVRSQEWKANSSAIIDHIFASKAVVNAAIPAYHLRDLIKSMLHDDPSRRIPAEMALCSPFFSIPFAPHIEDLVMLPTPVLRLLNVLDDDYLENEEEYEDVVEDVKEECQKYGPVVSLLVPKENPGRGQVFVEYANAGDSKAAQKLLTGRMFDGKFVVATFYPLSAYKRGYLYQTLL

[7] = biological target: protein kinases (human kinome) (Homo sapiens, UniProt Q14004); conditions: for logFC CDK13: Accession Q14004-1
protein kinases (human kinome) (Homo sapiens, UniProt Q14004), sequence (Q14004 whole entry): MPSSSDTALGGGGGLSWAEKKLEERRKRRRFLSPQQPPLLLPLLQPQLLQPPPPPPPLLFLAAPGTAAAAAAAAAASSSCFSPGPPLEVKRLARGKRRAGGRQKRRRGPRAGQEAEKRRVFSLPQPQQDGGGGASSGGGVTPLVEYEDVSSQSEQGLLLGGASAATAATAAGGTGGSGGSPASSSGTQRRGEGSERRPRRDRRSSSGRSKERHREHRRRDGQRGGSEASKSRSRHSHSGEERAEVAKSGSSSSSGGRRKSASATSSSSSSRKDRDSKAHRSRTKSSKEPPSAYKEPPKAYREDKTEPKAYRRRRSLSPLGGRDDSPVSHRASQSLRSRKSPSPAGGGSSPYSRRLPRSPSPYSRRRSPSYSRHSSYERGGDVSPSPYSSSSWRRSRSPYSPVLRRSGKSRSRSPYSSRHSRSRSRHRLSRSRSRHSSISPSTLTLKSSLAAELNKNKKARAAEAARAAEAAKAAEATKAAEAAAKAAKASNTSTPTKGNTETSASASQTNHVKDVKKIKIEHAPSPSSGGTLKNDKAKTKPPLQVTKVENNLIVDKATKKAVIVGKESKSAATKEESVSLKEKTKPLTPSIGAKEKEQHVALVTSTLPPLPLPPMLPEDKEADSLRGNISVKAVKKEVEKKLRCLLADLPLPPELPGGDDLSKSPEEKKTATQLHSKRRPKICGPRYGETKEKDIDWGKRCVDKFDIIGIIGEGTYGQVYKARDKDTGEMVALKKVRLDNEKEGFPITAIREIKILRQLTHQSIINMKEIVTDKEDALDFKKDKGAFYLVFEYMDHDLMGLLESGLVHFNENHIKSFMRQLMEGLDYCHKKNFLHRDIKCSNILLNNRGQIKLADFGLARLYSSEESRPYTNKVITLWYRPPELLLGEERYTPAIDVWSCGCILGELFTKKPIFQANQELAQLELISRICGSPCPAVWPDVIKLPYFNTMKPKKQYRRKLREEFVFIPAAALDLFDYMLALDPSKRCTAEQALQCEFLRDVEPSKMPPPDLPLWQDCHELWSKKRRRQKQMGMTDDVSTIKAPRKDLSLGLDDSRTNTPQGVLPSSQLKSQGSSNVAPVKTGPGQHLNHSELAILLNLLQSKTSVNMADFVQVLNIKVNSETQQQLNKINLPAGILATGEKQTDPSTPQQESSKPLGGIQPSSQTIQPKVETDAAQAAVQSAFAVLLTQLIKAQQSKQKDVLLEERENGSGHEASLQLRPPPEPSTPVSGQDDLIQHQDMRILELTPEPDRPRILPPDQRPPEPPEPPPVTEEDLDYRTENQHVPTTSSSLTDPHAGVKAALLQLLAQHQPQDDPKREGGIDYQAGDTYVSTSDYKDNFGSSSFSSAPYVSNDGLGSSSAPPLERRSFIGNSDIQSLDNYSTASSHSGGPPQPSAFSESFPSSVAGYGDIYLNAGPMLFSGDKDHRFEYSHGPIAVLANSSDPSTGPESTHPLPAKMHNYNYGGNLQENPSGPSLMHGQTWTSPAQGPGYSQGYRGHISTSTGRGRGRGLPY

[8] = biological target: T2, protein kinases (human kinome) (Homo sapiens, UniProt Q9UEE5); conditions: STK17A Q9UEE5; experiment wp137
T2 sequence (Q9UEE5 1-414): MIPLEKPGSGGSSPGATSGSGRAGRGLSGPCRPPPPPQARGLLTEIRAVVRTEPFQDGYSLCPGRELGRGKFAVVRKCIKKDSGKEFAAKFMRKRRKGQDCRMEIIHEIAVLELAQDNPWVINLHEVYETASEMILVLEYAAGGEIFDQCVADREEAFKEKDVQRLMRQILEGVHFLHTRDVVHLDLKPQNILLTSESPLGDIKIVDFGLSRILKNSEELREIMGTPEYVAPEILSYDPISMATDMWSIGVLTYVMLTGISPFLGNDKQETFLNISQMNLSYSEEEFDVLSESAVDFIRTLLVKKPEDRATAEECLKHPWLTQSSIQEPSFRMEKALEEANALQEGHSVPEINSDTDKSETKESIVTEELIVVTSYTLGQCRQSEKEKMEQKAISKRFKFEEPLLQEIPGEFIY

[9] = direction down, experiment wp137

protein kinases (human kinome) (Homo sapiens, UniProt O43683), sequence (O43683 whole entry): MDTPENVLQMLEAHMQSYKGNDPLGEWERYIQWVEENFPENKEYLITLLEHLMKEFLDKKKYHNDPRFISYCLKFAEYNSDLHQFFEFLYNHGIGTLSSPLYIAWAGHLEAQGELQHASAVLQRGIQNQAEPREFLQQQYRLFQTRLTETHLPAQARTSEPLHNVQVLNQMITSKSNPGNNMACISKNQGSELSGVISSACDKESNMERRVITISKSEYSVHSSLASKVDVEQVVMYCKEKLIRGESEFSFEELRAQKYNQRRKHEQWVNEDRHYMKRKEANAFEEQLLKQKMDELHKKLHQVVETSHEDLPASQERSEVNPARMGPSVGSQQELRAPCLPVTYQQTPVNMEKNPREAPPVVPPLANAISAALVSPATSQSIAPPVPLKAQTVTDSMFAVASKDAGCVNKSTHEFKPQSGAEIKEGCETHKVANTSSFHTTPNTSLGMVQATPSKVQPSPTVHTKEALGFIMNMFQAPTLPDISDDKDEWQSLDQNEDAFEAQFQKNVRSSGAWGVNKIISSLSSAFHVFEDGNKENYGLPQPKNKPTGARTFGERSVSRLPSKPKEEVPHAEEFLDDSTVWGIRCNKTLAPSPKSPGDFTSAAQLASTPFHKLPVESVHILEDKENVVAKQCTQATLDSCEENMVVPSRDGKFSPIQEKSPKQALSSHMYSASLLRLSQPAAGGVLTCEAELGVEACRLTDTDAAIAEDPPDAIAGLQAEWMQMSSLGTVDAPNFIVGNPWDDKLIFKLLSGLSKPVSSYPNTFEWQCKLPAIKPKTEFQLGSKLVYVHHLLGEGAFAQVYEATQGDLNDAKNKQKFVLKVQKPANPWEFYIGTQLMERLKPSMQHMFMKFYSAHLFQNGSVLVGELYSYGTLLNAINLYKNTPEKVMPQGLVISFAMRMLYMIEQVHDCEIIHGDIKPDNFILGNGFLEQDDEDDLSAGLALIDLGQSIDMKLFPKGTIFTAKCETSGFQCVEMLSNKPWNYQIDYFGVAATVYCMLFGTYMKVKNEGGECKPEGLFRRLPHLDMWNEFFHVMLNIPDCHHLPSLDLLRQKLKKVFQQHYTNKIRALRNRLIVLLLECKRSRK

Q: Which results are given for Cc1ccc(NC(=O)c2cccc(C(F)(F)F)c2)cc1N1Cc2cnc(Nc3ccc(N4CCN(CCCOc5cccc6c5C(=O)N(C5CCC(=O)NC5=O)C6=O)CC4)nc3)nc2N(C)C1=O (stereo not drawn) [DB0662]?
A: logFC ([1]; experiment wp168): −0.3382; logFC BUB1 (O43683) ([1]; Experiment wp168): −0.3382; logFC ([2]; experiment wp168): −0.8025; logFC ([2]; experiment wp168, direction down): −0.8025; logFC LIMK1 ([3]; direction down, experiment wp168): −1.911; logFC LIMK1 ([3]; experiment wp168, down): −1.911; logFC MAP3K1 ([4]; Accession Q13233, direction down): −0.7087; logFC MAP3K1 ([4]; MAP3K1 (Q13233)): −0.7087; logFC MAP3K11 (Q16584) ([5]; experiment wp168): −0.7288; logFC UHMK1 ([6]; Accession Q8TAS1, direction down): −0.3949; logFC UHMK1 ([6]; UHMK1 (Q8TAS1)): −0.3949

Q: Which logFC ([1]; experiment wp131) does the source give for CC(C)S(=O)(=O)c1ccccc1Nc1nc(Nc2ccc(N3CCN(CCOCCOCCNC(=O)CNc4cccc5c4C(=O)N(C4CCC(=O)NC4=O)C5=O)CC3)cc2)ncc1Cl (stereo not drawn) [TL12.186] here?
A: −0.4983

Q: What about the logFC ([1]; experiment wp137) of the same molecule?
A: −0.4422

Q: What about the “logFC BUB1 (O43683)” value ([1]; Experiment wp131) of the same molecule?
A: −0.4983

Q: What about the “logFC BUB1 (O43683)” value ([1]; Experiment wp137) of the same molecule?
A: −0.4422

Q: What about the logFC ([2]; experiment wp131) of the same molecule?
A: −0.5437

Q: And the logFC ([2]; experiment wp131, direction down)?
A: −0.5437

Q: And the “logFC LIMK1” value ([3]; direction down, experiment wp131)?
A: −1.055

Q: And the “logFC LIMK1” value [3, 9]?
A: −0.8734

Q: And the “logFC LIMK1” value ([3]; experiment wp131, down)?
A: −1.055

Q: And the “logFC LIMK1” value ([3]; experiment wp137, down)?
A: −0.8734

Q: And the “logFC CDK13” value ([7]; experiment wp016)?
A: −0.5885

Q: What about the “logFC CDK13” value ([7]; experiment wp131) of the same molecule?
A: −0.7903

Q: What about the “logFC CDK13” value ([7]; experiment wp137) of the same molecule?
A: −0.7062

Q: What about the logFC ([7]; CDK13 (Q14004-1), experiment wp016) of the same molecule?
A: −0.5885

Q: What about the “logFC CDK13 (Q14004-1)” value ([7]; experiment wp131) of the same molecule?
A: −0.7903

Q: And the “logFC CDK13 (Q14004-1)” value ([7]; experiment wp137)?
A: −0.7062

Q: What about the “logFC MAP3K11 (Q16584)” value ([5]; experiment wp131) of the same molecule?
A: −1.795

Q: What about the “logFC MAP3K11 (Q16584)” value ([5]; experiment wp137) of the same molecule?
A: −1.493

Q: And the logFC [8]?
A: −0.5054

Q: What about the “logFC STK17A” value [8] of the same molecule?
A: −0.5054

Q: With CC(C)S(=O)(=O)c1ccccc1Nc1nc(Nc2ccc(N3CCN(CCOCCOCCC(=O)NCCNc4cccc5c4CN(C4CCC(=O)NC4=O)C5=O)CC3)cc2)ncc1Cl (stereo not drawn) [TL13.97] as the molecule, how does the “logFC LIMK1” value [3, 9] read?
A: −1.173

Q: What about the “logFC LIMK1” value ([3]; experiment wp137, down) of the same molecule?
A: −1.173

Q: What about the “logFC CDK13” value ([7]; experiment wp137) of the same molecule?
A: −0.7359

Q: And the “logFC CDK13 (Q14004-1)” value ([7]; experiment wp137)?
A: −0.7359

Q: And the “logFC MAP3K11 (Q16584)” value ([5]; experiment wp137)?
A: −0.7626
